This is an account of results in patent US11332459B2 (TEIJIN PHARMA LIMITED, priority 2017, dated 2022).

The structures appear in SMILES notation. Counter-ions that a name gives are not always drawn.

This experiment addresses T1, human TRPC6 (Homo sapiens, UniProt Q9Y210).
T1 construct: expressed in transfected cells
T1 sequence (Q9Y210 1-931): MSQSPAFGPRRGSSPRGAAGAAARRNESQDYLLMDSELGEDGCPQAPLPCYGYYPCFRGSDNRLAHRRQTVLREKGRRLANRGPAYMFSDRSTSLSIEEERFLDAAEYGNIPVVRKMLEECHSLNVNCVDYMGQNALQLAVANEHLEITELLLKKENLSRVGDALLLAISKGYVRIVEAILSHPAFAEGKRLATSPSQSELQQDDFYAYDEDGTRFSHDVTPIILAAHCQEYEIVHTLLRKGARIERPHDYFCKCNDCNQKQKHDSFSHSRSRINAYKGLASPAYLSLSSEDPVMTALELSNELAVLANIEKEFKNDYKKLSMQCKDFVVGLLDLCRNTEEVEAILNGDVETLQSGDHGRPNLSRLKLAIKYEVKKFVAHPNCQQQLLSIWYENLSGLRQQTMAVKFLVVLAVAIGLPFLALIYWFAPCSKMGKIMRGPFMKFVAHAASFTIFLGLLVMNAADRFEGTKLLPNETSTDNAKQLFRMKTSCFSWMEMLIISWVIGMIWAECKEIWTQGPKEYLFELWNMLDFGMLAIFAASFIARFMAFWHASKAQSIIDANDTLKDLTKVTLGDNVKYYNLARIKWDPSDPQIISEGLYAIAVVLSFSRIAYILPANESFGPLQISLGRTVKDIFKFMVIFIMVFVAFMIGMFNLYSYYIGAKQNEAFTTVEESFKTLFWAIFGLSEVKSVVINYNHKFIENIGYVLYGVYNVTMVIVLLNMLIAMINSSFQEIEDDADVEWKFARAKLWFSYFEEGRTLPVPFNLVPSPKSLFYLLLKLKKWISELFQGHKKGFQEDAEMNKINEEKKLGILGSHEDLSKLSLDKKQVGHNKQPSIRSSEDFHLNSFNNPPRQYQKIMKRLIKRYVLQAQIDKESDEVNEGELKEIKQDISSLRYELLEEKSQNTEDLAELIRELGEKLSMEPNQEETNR
Kind of experiment: TRPC6 calcium flux assay (FLIPR, OAG-stimulated calcium influx). It counts as cell-based. Conditions: HEK293 cells stably transfected with human TRPC6, read-out: hTRPC6 Potency. In short, it runs like this:
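IC50 derived by plotting background-corrected peak fluorescence (180 s window, normalized to OAG-triggered signal vs buffer) against dose. Stable human TRPC6 HEK293 line was dye-loaded, exposed to compound 25 min, then challenged with 50 uM final OAG in 2 mM Ca2+ HEPES buffer pH 7.2, 0.5% DMSO.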
On the technique in general: Calcium assays in cells follow changes in intracellular calcium, usually with a dye or a luminescent sensor.
As to `C[C@@H](c1ccc(C#N)cn1)n1c(N2CC[C@@H](F)[C@H](N)C2)nc2ccccc21` [Example 298, 6-((S)-1-(2-((3R,4R)-3-amino-4-fluoropiperidin-1-yl)-1H-benzo[d]imidazol-1-yl)ethyl)nicotinonitrile hydrochloride], the IC50 worked out at 0.0172 µM.

Turning to `CC(C)(C)NC(=O)c1ccc(Cn2c(N3CC[C@@H](F)[C@H](N)C3)nc3ncc(Cl)cc32)nc1` [Example 94, 6-((2-((3R,4R)-3-amino-4-fluoropiperidin-1-yl)-6-chloro-1H-imidazo[4,5-b]pyridin-1-yl)methyl)-N-(tert-butyl)nicotinamide], the IC50 was 0.615 µM.

`C[C@H](c1ccc(C#N)cn1)n1c(N2CC[C@@H]3OCCN[C@H]3C2)nc2cc(F)cc(F)c21` [Example 272, 6-((1R)-1-(5,7-difluoro-2-((4aS,8aS)-hexahydro-2H-pyrido[4,3-b][1,4]oxazin-6(5H)-yl)-1H-benzimidazol-1-yl)ethyl)-3-pyridinecarbonitrile]: the IC50 was 0.00281 µM.

Take `C[C@@H](c1ccc(C#N)cn1)n1c(N2CC[C@H]3OCCN[C@@H]3C2)nc2cc(F)cc(F)c21` [Example 274, 6-((1S)-1-(5,7-difluoro-2-((4aR,8aR)-hexahydro-2H-pyrido[4,3-b][1,4]oxazin-6(5H)-yl)-1H-benzimidazol-1-yl)ethyl)-3-pyridinecarbonitrile]: the IC50 was determined as 0.000328 µM.

As to `C[C@H](c1ccc(C#N)cc1)n1c(N2CC[C@@H](F)[C@H](N)C2)nc2ccccc21` [Example 319, 4-((R)-1-(2-((3R,4R)-3-amino-4-fluoropiperidin-1-yl)-1H-benzo[d]imidazol-1-yl)ethyl)benzonitrile hydrochloride], the IC50 was 0.456 µM.

Regarding `CC1CCN(C(=O)Cn2c(N3CC[C@@H](F)[C@H](N)C3)nc3cc(F)c(F)cc32)CC1` [Example 516, 2-(2-((3R,4R)-3-amino-4-fluoropiperidin-1-yl)-5,6-difluoro-1H-benzo[d]imidazol-1-yl)-1-(4-methylpiperidin-1-yl)ethan-1-one], the IC50 is 0.197 µM.

In the case of `CC1CCCN(C(=O)C2CCN(C(=O)Cn3c(N4CC[C@@H](F)[C@H](N)C4)nc4cc(F)c(F)cc43)CC2)C1` (stereo partly drawn) [Example 539, 2-(2-((3R,4R)-3-amino-4-fluoropiperidin-1-yl)-5,6-difluoro-1H-benzo[d]imidazol-1-yl)-1-(4-(3-methylpiperidine-1-carbonyl)piperidin-1-yl)ethan-1-one], the IC50 is > 3.75 µM.

For the compound `N#Cc1ccc(Cn2c(N3CC[C@@H](F)[C@H](N)C3)nc3cc(F)c(F)cc32)cc1Cl` [Example 346, 4-((2-((3R,4R)-3-amino-4-fluoro-1-piperidinyl)-5,6-difluoro-1H-benzimidazol-1-yl)methyl)-2-chlorobenzonitrile], the IC50 came to 0.00139 µM.

Consider `N#Cc1ccc(Cn2c(N3CC[C@@H](F)[C@@H](N)C3)nc3ccccc32)cc1` [Example 171, 4-((2-((3S,4R)-3-amino-4-fluoropiperidin-1-yl)-1H-benzo[d]imidazol-1-yl)methyl)benzonitrile], for which the IC50 was 0.544 µM.

Regarding `CC1COCC(C)N1C(=O)Cn1c(N2CC[C@@H](F)[C@H](N)C2)nc2ccc(F)cc21` (stereo partly drawn) [Example 683, 2-(2-((3R,4R)-3-amino-4-fluoropiperidin-1-yl)-6-fluoro-1H-benzo[d]imidazol-1-yl)-1-(3,5-dimethylmorpholino)ethan-1-one], the IC50 turned out to be 0.29 µM.

For the compound `N#Cc1ccc(Cn2c(N3CCC(F)(F)[C@H](N)C3)nc3c(F)cc(F)cc32)nc1` [Example 87, (R)-6-((2-(3-amino-4,4-difluoropiperidin-1-yl)-4,6-difluoro-1H-benzo[d]imidazol-1-yl)methyl)nicotinonitrile hydrochloride], the IC50 worked out at 0.000931 µM.

Consider `N#Cc1ccc(Cn2c(N3CCC(F)(F)[C@H](NCCO)C3)nc3ccc(F)cc32)nc1` [Example 433, (R)-6-((2-(4,4-difluoro-3-((2-hydroxyethyl)amino)piperidin-1-yl)-6-fluoro-1H-benzo[d]imidazol-1-yl)methyl)nicotinonitrile], for which the IC50 was > 3.75 µM.

Consider `N[C@@H]1CN(c2nc3ccc(F)cc3n2CC(=O)N[C@H]2CCOC2)CC[C@H]1F` [Example 675, 2-(2-((3R,4R)-3-amino-4-fluoropiperidin-1-yl)-6-fluoro-1H-benzo[d]imidazol-1-yl)-N-((S)-tetrahydrofuran-3-yl)acetamide], for which the IC50 is > 3.75 µM.

For the compound `N[C@@H]1CN(c2nc3ccc(C(F)(F)F)cc3n2Cc2ncc(F)cn2)CC[C@@H]1F` [Example 305, (3R,4S)-4-fluoro-1-(1-((5-fluoropyrimidin-2-yl)methyl)-6-(trifluoromethyl)-1H-benzo[d]imidazol-2-yl)piperidin-3-amine], the IC50 was 0.000288 µM.

As to `COc1cnc(Cn2c(N3CC[C@@H](F)[C@H](N)C3)nc3ccccc32)nc1` [Example 194, (3R,4R)-4-fluoro-1-(1-((5-methoxypyrimidin-2-yl)methyl)-1H-benzo[d]imidazol-2-yl)piperidin-3-amine], the IC50 was found to be 0.0142 µM.

Take `C[C@H](c1cc(F)ccc1F)n1c(N2CC[C@@H](F)[C@H](N)C2)nc2cc(F)c(F)cc21` [Example 334, (3R,4R)-1-(1-((1R)-(2,5-difluorophenyl)ethyl)-5,6-difluoro-1H-benzimidazol-2-yl)-4-fluoro-3-piperidinamine]: the IC50 was found to be 3.54 µM.

Consider `CNC(=O)C1CCN(C(=O)Cn2c(N3CC[C@@H](F)[C@H](N)C3)nc3cc(F)c(F)cc32)CC1` [Example 534, 1-(2-(2-((3R,4R)-3-amino-4-fluoropiperidin-1-yl)-5,6-difluoro-1H-benzo[d]imidazol-1-yl)acetyl)-N-methylpiperidine-4-carboxamide], for which the IC50 was > 3.75 µM.

`N#Cc1ccc(Cn2c(N3CCC(F)(F)[C@H](N)C3)nc3ccccc32)cc1` [Example 154, (R)-4-((2-(3-amino-4,4-difluoropiperidin-1-yl)-1H-benzo[d]imidazol-1-yl)methyl)benzonitrile]: the IC50 worked out at 0.00306 µM.

For the compound `CN(C)C(=O)Cn1c(N2CC[C@H](F)[C@H](N)C2)nc2ccc(Cl)cc21` [Example 461, 2-(2-((3R,4S)-3-amino-4-fluoropiperidin-1-yl)-6-chloro-1H-benzo[d]imidazol-1-yl)-N,N-dimethylacetamide], the IC50 stood at 0.0289 µM.

As for `CO[C@@H]1CCN(c2nc3ccc(F)cc3n2Cc2ncc(Cl)cn2)C[C@H]1N` [Example 454, (3R,4R)-1-(1-((5-chloropyrimidin-2-yl)methyl)-6-fluoro-1H-benzo[d]imidazol-2-yl)-4-methoxypiperidin-3-amine], the IC50 stood at 0.00152 µM.

`N#Cc1ccc(Cn2c(N3CC[C@H](F)[C@H](N)C3)nc3cc(C#N)ccc32)nc1` [Example 69, 2-((3R,4S)-3-amino-4-fluoropiperidin-1-yl)-1-((5-cyanopyridin-2-yl)methyl)-1H-benzo[d]imidazole-5-carbonitrile]: the IC50 worked out at 0.0147 µM.

In the case of `CN[C@H]1CCCN(c2nc3cc(C(F)(F)F)ccc3n2Cc2ccc(C#N)cn2)C1` [Example 140, 6-((2-((3S)-3-(methylamino)-1-piperidinyl)-5-(trifluoromethyl)-1H-benzimidazol-1-yl)methyl)-3-pyridinecarbonitrile], the IC50 turned out to be 0.132 µM.

Turning to `N#Cc1ccc(Cn2c(N3C[C@H]4C[C@@]4(CN)C3)nc3ccccc32)cc1` [Example 184, 4-((2-((1R,5S)-1-(aminomethyl)-3-azabicyclo[3.1.0]hexan-3-yl)-1H-benzo[d]imidazol-1-yl)methyl)benzonitrile], the IC50 was 0.143 µM.

Turning to `C[C@H](c1ccc(C#N)cn1)n1c(N2CC[C@@H](F)[C@H](N)C2)nc2ccccc21` [Example 297, 6-((R)-1-(2-((3R,4R)-3-amino-4-fluoropiperidin-1-yl)-1H-benzo[d]imidazol-1-yl)ethyl)nicotinonitrile hydrochloride], the IC50 was 0.0785 µM.

Consider `N#Cc1ccc2c(c1)nc(N1CC[C@@H](F)[C@H](N)C1)n2Cc1ncc(Cl)cn1` [Example 198], for which the IC50 was 0.0712 µM.

Turning to `N[C@@H]1CN(c2nc3cc(F)c(F)cc3n2CC(=O)N2CCC3CCCCC3C2)CC[C@H]1F` (mixture of isomers) [Example 523, 2-(2-((3R,4R)-3-amino-4-fluoropiperidin-1-yl)-5,6-difluoro-1H-benzo[d]imidazol-1-yl)-1-(octahydroisoquinolin-2(1H)-yl)ethan-1-one], the IC50 amounted to 0.988 µM.

Regarding `N#Cc1ccc(Cn2c(N3CC[C@@H](F)[C@H](N)C3)nc3ccc(C#N)cc32)nc1` [Example 53, 2-((3R,4R)-3-amino-4-fluoropiperidin-1-yl)-1-((5-cyanopyridin-2-yl)methyl)-1H-benzo[d]imidazole-6-carbonitrile], the IC50 is 0.00152 µM.
